Laboratory results taken from ChEMBL document CHEMBL2086330, “Ras inhibition via direct Ras binding--is there a path forward?” (Bioorg Med Chem Lett, 2012).
Each block holds one compound with its values, some of them ahead of it.

Key:
[1] = Inhibition of Ras assessed as inhibition of intrinsic nucleotide exchange in cell-based assay
[2] = Binding affinity to Ras SOS1 binding site
GTPase NRas = GTPase NRas (Homo sapiens, UniProt P01111); assay: Inhibition of N-Ras expressed in Escherichia coli using [3H]GDP and [3H]GTP assessed as inhibition of intrinsic nucleotide exchange by scintillation counting
GTPase KRas = GTPase KRas (Homo sapiens, UniProt P01116, G12D); assay: Binding affinity to K-Ras G12D mutant-GDP complex
[3] = target: T1, Son of sevenless homolog 1 (Homo sapiens, UniProt Q07889); assay: Inhibition to His6-tagged Sos1 catalytic domain-mediated nucleotide exchange by fluorimetric assay
T1 sequence (Q07889 whole entry): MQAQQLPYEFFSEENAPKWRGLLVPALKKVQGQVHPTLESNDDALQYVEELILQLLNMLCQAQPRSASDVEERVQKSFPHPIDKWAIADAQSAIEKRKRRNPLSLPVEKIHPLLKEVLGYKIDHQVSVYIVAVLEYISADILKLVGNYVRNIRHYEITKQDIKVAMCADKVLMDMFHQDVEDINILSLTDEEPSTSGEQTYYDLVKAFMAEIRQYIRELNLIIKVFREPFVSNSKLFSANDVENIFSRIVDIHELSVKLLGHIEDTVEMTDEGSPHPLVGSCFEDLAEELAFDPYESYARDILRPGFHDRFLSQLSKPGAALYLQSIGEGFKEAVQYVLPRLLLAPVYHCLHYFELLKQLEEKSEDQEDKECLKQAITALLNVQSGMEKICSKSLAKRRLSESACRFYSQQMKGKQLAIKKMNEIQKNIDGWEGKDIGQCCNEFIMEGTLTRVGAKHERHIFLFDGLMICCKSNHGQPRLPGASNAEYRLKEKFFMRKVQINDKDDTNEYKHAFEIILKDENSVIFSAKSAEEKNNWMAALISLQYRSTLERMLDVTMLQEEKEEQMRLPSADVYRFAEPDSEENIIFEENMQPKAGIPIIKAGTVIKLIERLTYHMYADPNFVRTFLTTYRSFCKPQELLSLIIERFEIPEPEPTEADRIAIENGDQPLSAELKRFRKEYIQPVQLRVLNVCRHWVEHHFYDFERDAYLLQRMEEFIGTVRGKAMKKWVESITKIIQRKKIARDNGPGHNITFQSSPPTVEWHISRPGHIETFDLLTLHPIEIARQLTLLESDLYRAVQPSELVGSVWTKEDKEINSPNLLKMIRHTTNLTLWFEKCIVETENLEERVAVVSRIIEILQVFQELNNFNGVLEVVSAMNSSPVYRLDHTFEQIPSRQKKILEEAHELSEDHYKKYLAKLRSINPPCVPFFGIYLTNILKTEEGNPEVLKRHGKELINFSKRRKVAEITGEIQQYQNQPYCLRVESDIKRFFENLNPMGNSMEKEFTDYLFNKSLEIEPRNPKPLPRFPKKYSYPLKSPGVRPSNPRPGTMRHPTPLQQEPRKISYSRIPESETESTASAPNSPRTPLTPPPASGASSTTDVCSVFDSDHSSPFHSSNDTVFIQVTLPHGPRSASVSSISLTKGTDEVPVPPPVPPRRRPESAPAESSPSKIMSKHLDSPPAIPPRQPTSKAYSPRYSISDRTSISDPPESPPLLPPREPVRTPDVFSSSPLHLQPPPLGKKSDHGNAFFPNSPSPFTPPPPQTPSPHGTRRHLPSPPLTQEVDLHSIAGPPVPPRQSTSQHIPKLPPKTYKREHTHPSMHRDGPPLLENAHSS

Sequence of GTPase NRas (P01111 whole entry): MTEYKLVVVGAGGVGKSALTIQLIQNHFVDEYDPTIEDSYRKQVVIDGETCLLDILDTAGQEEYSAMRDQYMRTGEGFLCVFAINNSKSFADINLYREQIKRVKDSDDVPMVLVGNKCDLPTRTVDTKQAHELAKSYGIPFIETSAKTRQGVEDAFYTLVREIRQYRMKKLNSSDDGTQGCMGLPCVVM
Sequence of GTPase KRas (P01116 whole entry G12D, the tested form may be a part): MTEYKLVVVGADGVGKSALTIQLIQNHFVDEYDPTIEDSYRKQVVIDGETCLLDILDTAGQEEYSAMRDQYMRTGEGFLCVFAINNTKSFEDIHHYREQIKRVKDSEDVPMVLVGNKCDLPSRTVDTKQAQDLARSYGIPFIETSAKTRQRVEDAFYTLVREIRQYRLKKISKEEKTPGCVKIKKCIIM

EC50 [1]: 10 µM
SMILES: O=S(=O)(NCCOc1ccc2ccccc2c1)c1ccc(NO)cc1

Activity [2]: 1.3 mM
SMILES: c1ccc2c(Cc3nc4ccncc4[nH]3)c[nH]c2c1

IC50 (GTPase NRas): 0.5 µM
SMILES: O=S(=O)(c1ccc(NO)cc1)N(CCOc1ccc2ccccc2c1)[C@@H]1O[C@H](CO)[C@@H](O)[C@H](O)[C@H]1O

Activity [2]: 1.3 mM
SMILES: Nc1cccc(NS(=O)(=O)c2ccc(F)cc2)n1

Activity [2]: 1.3 mM
SMILES: Oc1ccccc1C(=S)N1CCCC1

SMILES: CC[C@H](C)[C@H](N)C(=O)Nc1ccc2nc(Cc3c[nH]c4ccccc34)[nH]c2c1
Kd (GTPase KRas): 190 µM

IC50 [3]: 25 µM
SMILES: CC[C@H](C)[C@H](NC(=O)CN1C/C=C\CCC(=O)N[C@@H](Cc2ccccc2)C(=O)N[C@@H](CCC(=O)O)C1=O)C(=O)N[C@@H](Cc1ccc(O)cc1)C(=O)N[C@@H](CCCNC(=N)N)C(=O)N[C@@H](CC(C)C)C(=O)N[C@@H](CCC(=O)O)C(=O)N[C@@H](CC(C)C)C(=O)N[C@@H](CC(C)C)C(=O)N[C@@H](CCCCN)C(=O)N[C@@H](C)C(=O)N[C@@H](CCC(=O)O)C(=O)N[C@@H](CCC(=O)O)C(=O)N[C@@H](C)C(=O)N[C@@H](CC(N)=O)C(N)=O
